# Assay results as given in ChEMBL document CHEMBL3045530, “Synthesis, antimycobacterial, antiviral, antimicrobial activities, and QSAR studies of isonicotinic acid-1-(substituted phenyl)-ethylidene/cycloheptylidene hydrazides” (Med Chem Res, 2012).
# Tested on: Vesicular stomatitis virus
# Assay: Antiviral activity against Vesicular stomatitis virus infected human HeLa cells assessed as inhibition of virus-induced cytopathicity by microscopy
# Format: functional, organism-based
# Conditions: not given
row,SMILES,EC50
1,C/C(=N\NC(=O)c1ccncc1)c1ccc(Cl)cc1Cl,> 20 µg/mL
2,O=C(NN=C1CCCCCC1)c1ccncc1 [N'-CYCLOHEPTYLIDENEISONICOTINOHYDRAZIDE],> 100 µg/mL

# Tested on: Human herpesvirus 3 strain Oka vaccine
# Assay: Antiviral activity against Human herpesvirus 3 strain Oka vaccine OKA 07-1 (Varicella zoster virus ) infected in human HEL cells assessed as inhibition of virus-induced cytopathicity
# Format: functional, organism-based
# Conditions: Human alphaherpesvirus 3, HEL
row,SMILES,EC50
1,C/C(=N\NC(=O)c1ccncc1)c1ccc(Cl)cc1Cl,> 20 µg/mL
2,O=C(NN=C1CCCCCC1)c1ccncc1 [N'-CYCLOHEPTYLIDENEISONICOTINOHYDRAZIDE],> 100 µg/mL

# Tested on: Human herpesvirus 5 strain AD169
# Assay: Antiviral activity against Human herpesvirus 5 strain AD169 Davis infected human HEL cells assessed as inhibition of virus-induced cytopathicity by microscopy
# Format: functional, organism-based
# Conditions: Human betaherpesvirus 5, Davis
row,SMILES,EC50
1,C/C(=N\NC(=O)c1ccncc1)c1ccc(Cl)cc1Cl,> 20 µg/mL
2,O=C(NN=C1CCCCCC1)c1ccncc1 [N'-CYCLOHEPTYLIDENEISONICOTINOHYDRAZIDE],> 100 µg/mL

# Tested on: Respiratory syncytial virus
# Assay: Antiviral activity against Respiratory syncytial virus infected human HeLa cells assessed as inhibition of virus-induced cytopathicity by microscopy
# Format: functional, organism-based
# Conditions: not given
row,SMILES,EC50
1,C/C(=N\NC(=O)c1ccncc1)c1ccc(Cl)cc1Cl,> 20 µg/mL
2,O=C(NN=C1CCCCCC1)c1ccncc1 [N'-CYCLOHEPTYLIDENEISONICOTINOHYDRAZIDE],> 100 µg/mL

# Tested on: Human alphaherpesvirus 1
# Assay: Antiviral activity against Human herpesvirus 1 strain KOS infected human HEL cells assessed as inhibition of virus-induced cytopathicity by microscopy by microscopy
# Format: functional, organism-based
# Conditions: Human alphaherpesvirus 1, KOS
row,SMILES,EC50
1,C/C(=N\NC(=O)c1ccncc1)c1ccc(Cl)cc1Cl,> 100 µg/mL
2,O=C(NN=C1CCCCCC1)c1ccncc1 [N'-CYCLOHEPTYLIDENEISONICOTINOHYDRAZIDE],> 100 µg/mL

# Tested on: Human alphaherpesvirus 1
# Assay: Antiviral activity against TK(-) aciclovir-resistant Human herpesvirus 1 strain KOS infected in human HEL cells assessed as inhibition of virus-induced cytopathicity
# Format: functional, organism-based
# Conditions: Human alphaherpesvirus 1, KOS
row,SMILES,EC50
1,C/C(=N\NC(=O)c1ccncc1)c1ccc(Cl)cc1Cl,> 100 µg/mL
2,O=C(NN=C1CCCCCC1)c1ccncc1 [N'-CYCLOHEPTYLIDENEISONICOTINOHYDRAZIDE],> 100 µg/mL

# Tested on: Vaccinia virus
# Assay: Antiviral activity against Vaccinia virus infected human HEL cells assessed as inhibition of virus-induced cytopathicity by microscopy
# Format: functional, organism-based
# Conditions: Orthopoxvirus vaccinia
row,SMILES,EC50
1,C/C(=N\NC(=O)c1ccncc1)c1ccc(Cl)cc1Cl,> 100 µg/mL
2,O=C(NN=C1CCCCCC1)c1ccncc1 [N'-CYCLOHEPTYLIDENEISONICOTINOHYDRAZIDE],> 100 µg/mL

# Tested on: Human immunodeficiency virus 2
# Assay: Antiviral activity against Human immunodeficiency virus type 2 (ISOLATE ROD) infected MT4 cells assessed as inhibition of virus-induced cytopathic effect after 4 days by MTT assay
# Format: functional, organism-based
# Conditions: Human immunodeficiency virus 2, ISOLATE ROD, MT4, 96 h
row,SMILES,EC50
1,C/C(=N\NC(=O)c1ccncc1)c1ccc(Cl)cc1Cl,> 38 µg/mL
2,O=C(NN=C1CCCCCC1)c1ccncc1 [N'-CYCLOHEPTYLIDENEISONICOTINOHYDRAZIDE],> 86 µg/mL

# Tested on: Sindbis virus
# Assay: Antiviral activity against Sindbis virus infected Vero cells assessed as inhibition of virus-induced cytopathicity
# Format: functional, organism-based
# Conditions: not given
row,SMILES,EC50
1,C/C(=N\NC(=O)c1ccncc1)c1ccc(Cl)cc1Cl,> 20 µg/mL
2,O=C(NN=C1CCCCCC1)c1ccncc1 [N'-CYCLOHEPTYLIDENEISONICOTINOHYDRAZIDE],> 100 µg/mL

# Tested on: HEL
# Assay: Cytostatic against Homo sapiens (human) HEL cells assessed as alteration in cell morphology by microscopy
# Format: ADME, cell-based
# Conditions: not given
row,SMILES,Activity
1,C/C(=N\NC(=O)c1ccncc1)c1ccc(Cl)cc1Cl,Toxic
2,O=C(NN=C1CCCCCC1)c1ccncc1 [N'-CYCLOHEPTYLIDENEISONICOTINOHYDRAZIDE],Toxic

# Tested on: not listed separately
# Assay: Cytotoxicity against Chlorocebus aethiops (African green monkey) Vero cells assessed as alteration in cell morphology by microscopy
# Format: cell-based
# Conditions: chlorocebus sabaeus, read-out: MTC
row,SMILES,MCC
1,C/C(=N\NC(=O)c1ccncc1)c1ccc(Cl)cc1Cl,100 µg/mL
2,O=C(NN=C1CCCCCC1)c1ccncc1 [N'-CYCLOHEPTYLIDENEISONICOTINOHYDRAZIDE],> 100 µg/mL

# Tested on: Coxsackievirus B4
# Assay: Antiviral activity against Human coxsackievirus B4 infected Vero cells assessed as inhibition of virus-induced cytopathicity
# Format: functional, organism-based
# Conditions: Enterovirus B
row,SMILES,EC50
1,C/C(=N\NC(=O)c1ccncc1)c1ccc(Cl)cc1Cl,> 20 µg/mL
2,O=C(NN=C1CCCCCC1)c1ccncc1 [N'-CYCLOHEPTYLIDENEISONICOTINOHYDRAZIDE],> 100 µg/mL

# Tested on: Mammalian orthoreovirus 1
# Assay: Antiviral activity against Mammalian orthoreovirus 1 infected Vero cells assessed as inhibition of virus-induced cytopathicity by microscopy
# Format: functional, organism-based
# Conditions: Mammalian orthoreovirus 1, Vero
row,SMILES,EC50
1,C/C(=N\NC(=O)c1ccncc1)c1ccc(Cl)cc1Cl,> 20 µg/mL
2,O=C(NN=C1CCCCCC1)c1ccncc1 [N'-CYCLOHEPTYLIDENEISONICOTINOHYDRAZIDE],> 100 µg/mL

# Tested on: Candida albicans
# Assay: Antimicrobial activity against Candida albicans after 48 hr by tube dilution method
# Format: functional
# Conditions: not given
row,SMILES,-logMIC
1,C/C(=N\NC(=O)c1ccncc1)c1ccc(Cl)cc1Cl,2.69
2,O=C(NN=C1CCCCCC1)c1ccncc1 [N'-CYCLOHEPTYLIDENEISONICOTINOHYDRAZIDE],1.66

# Tested on: Staphylococcus aureus
# Assay: Antimicrobial activity against Staphylococcus aureus after 24 hr by tube dilution method
# Format: functional
# Conditions: not given
row,SMILES,-logMIC
1,C/C(=N\NC(=O)c1ccncc1)c1ccc(Cl)cc1Cl,2.09
2,O=C(NN=C1CCCCCC1)c1ccncc1 [N'-CYCLOHEPTYLIDENEISONICOTINOHYDRAZIDE],1.66

# Tested on: not listed separately
# Assay: Cytotoxicity against Homo sapiens (human) MT4 cells after 4 days by MTT assay
# Format: cell-based
# Conditions: not given
row,SMILES,CC50 at 96 h
1,C/C(=N\NC(=O)c1ccncc1)c1ccc(Cl)cc1Cl,38 µg/mL
2,O=C(NN=C1CCCCCC1)c1ccncc1 [N'-CYCLOHEPTYLIDENEISONICOTINOHYDRAZIDE],86 µg/mL

# Tested on: Aspergillus niger
# Assay: Antimicrobial activity against Aspergillus niger after 7 days by tube dilution method
# Format: functional
# Conditions: not given
row,SMILES,-logMIC
1,C/C(=N\NC(=O)c1ccncc1)c1ccc(Cl)cc1Cl,2.39
2,O=C(NN=C1CCCCCC1)c1ccncc1 [N'-CYCLOHEPTYLIDENEISONICOTINOHYDRAZIDE],1.66

# Tested on: Escherichia coli
# Assay: Antimicrobial activity against Escherichia coli after 24 hr by tube dilution method
# Format: functional
# Conditions: not given
row,SMILES,-logMIC
1,C/C(=N\NC(=O)c1ccncc1)c1ccc(Cl)cc1Cl,2.39
2,O=C(NN=C1CCCCCC1)c1ccncc1 [N'-CYCLOHEPTYLIDENEISONICOTINOHYDRAZIDE],1.36

# Tested on: Human alphaherpesvirus 2
# Assay: Antiviral activity against Human herpesvirus 2 strain G infected human HEL cells assessed as inhibition of virus-induced cytopathicity by microscopy
# Format: functional, organism-based
# Conditions: Human alphaherpesvirus 2, strain G
row,SMILES,EC50
1,C/C(=N\NC(=O)c1ccncc1)c1ccc(Cl)cc1Cl,> 100 µg/mL
2,O=C(NN=C1CCCCCC1)c1ccncc1 [N'-CYCLOHEPTYLIDENEISONICOTINOHYDRAZIDE],> 100 µg/mL

# Tested on: Human immunodeficiency virus 1
# Assay: Antiviral activity against Human immunodeficiency virus 1 IIIB infected MT4 cells assessed as inhibition of virus-induced cytopathic effect after 4 days by MTT assay
# Format: functional, organism-based
# Conditions: MT4, 96 h
row,SMILES,EC50
1,C/C(=N\NC(=O)c1ccncc1)c1ccc(Cl)cc1Cl,> 38 µg/mL
2,O=C(NN=C1CCCCCC1)c1ccncc1 [N'-CYCLOHEPTYLIDENEISONICOTINOHYDRAZIDE],> 86 µg/mL

# Tested on: Coxsackievirus B4
# Assay: Antiviral activity against Human coxsackievirus B4 infected human HeLa cells assessed as inhibition of virus-induced cytopathicity by microscopy
# Format: functional, organism-based
# Conditions: Enterovirus B
row,SMILES,EC50
1,C/C(=N\NC(=O)c1ccncc1)c1ccc(Cl)cc1Cl,> 20 µg/mL
2,O=C(NN=C1CCCCCC1)c1ccncc1 [N'-CYCLOHEPTYLIDENEISONICOTINOHYDRAZIDE],> 100 µg/mL

# Tested on: Human respirovirus 3
# Assay: Antiviral activity against Human parainfluenza virus 3 infected Vero cells assessed as inhibition of virus-induced cytopathicity by microscopy
# Format: functional, organism-based
# Conditions: Human respirovirus 3, Vero
row,SMILES,EC50
1,C/C(=N\NC(=O)c1ccncc1)c1ccc(Cl)cc1Cl,> 20 µg/mL
2,O=C(NN=C1CCCCCC1)c1ccncc1 [N'-CYCLOHEPTYLIDENEISONICOTINOHYDRAZIDE],> 100 µg/mL

# Tested on: not listed separately
# Assay: Cytotoxicity against Homo sapiens (human) HeLa cells assessed as alteration in cell morphology by microscopy
# Format: cell-based
# Conditions: read-out: MTC
row,SMILES,MCC
1,C/C(=N\NC(=O)c1ccncc1)c1ccc(Cl)cc1Cl,100 µg/mL
2,O=C(NN=C1CCCCCC1)c1ccncc1 [N'-CYCLOHEPTYLIDENEISONICOTINOHYDRAZIDE],> 100 µg/mL

# Tested on: Bacillus subtilis
# Assay: Antimicrobial activity against Bacillus subtilis after 24 hr by tube dilution method
# Format: functional
# Conditions: not given
row,SMILES,-logMIC
1,C/C(=N\NC(=O)c1ccncc1)c1ccc(Cl)cc1Cl,2.09
2,O=C(NN=C1CCCCCC1)c1ccncc1 [N'-CYCLOHEPTYLIDENEISONICOTINOHYDRAZIDE],1.66

# Tested on: not listed separately
# Assay: Cytotoxicity against Homo sapiens (human) HEL cells assessed as alteration in cell morphology by microscopy
# Format: cell-based
# Conditions: not given
row,SMILES,CC50
1,C/C(=N\NC(=O)c1ccncc1)c1ccc(Cl)cc1Cl,11 µg/mL
2,O=C(NN=C1CCCCCC1)c1ccncc1 [N'-CYCLOHEPTYLIDENEISONICOTINOHYDRAZIDE],> 100 µg/mL

# Same assay, conditions: read-out: MTC
row,SMILES,MCC
1,C/C(=N\NC(=O)c1ccncc1)c1ccc(Cl)cc1Cl,> 100 µg/mL
2,O=C(NN=C1CCCCCC1)c1ccncc1 [N'-CYCLOHEPTYLIDENEISONICOTINOHYDRAZIDE],> 100 µg/mL

# Tested on: Punta Toro virus
# Assay: Antiviral activity against Punta Toro virus infected Vero cells assessed as inhibition of virus-induced cytopathicity
# Format: functional, organism-based
# Conditions: not given
row,SMILES,EC50
1,C/C(=N\NC(=O)c1ccncc1)c1ccc(Cl)cc1Cl,> 20 µg/mL
2,O=C(NN=C1CCCCCC1)c1ccncc1 [N'-CYCLOHEPTYLIDENEISONICOTINOHYDRAZIDE],> 100 µg/mL
